Laboratory results: paper PMC12281487, “Discovery and Validation of a Novel Class of Necroptosis Inhibitors Targeting RIPK1” (ACS Chemical Biology, 2025)

Key:
[1] = system: RIPK1 Ser166 phosphorylation; test: Western blot of RIPK1 Ser166 phosphorylation in I2.1 cells; assay type: cell-based, human; conditions: prior treatment with 10 μM compound
Protocol: All compound treatments were performed with a preprepared 1000× stock of the desired concentration in DMSO and added directly to the relevant plate, with a final concentration of 0.1% DMSO on the cells. TNF (final concentration 575 pM) was added to induce necroptosis, the cells incubated for 4 h and harvested.
Cells were transferred to a microcentrifuge tube and centrifuged at 200g for 5 min, and media were removed. Cells were washed with PBS and lysed with 100 μL of lysis buffer (radioimmunoprecipitation assay lysis buffer, Sigma-Aldrich, R0278) supplemented with 1× phosphatase inhibitor cocktail 2 (Sigma, P5726) and 1× complete EDTA-free protease inhibitor cocktail (Sigma, […])) on ice for 30 min. The lysate was collected by centrifugation at 17,000g, 4 °C for 5 min, and the lysate was transferred to a new microcentrifuge tube. Protein concentration was determined using the DC Protein Assay (Bio-Rad) in a 96-well plate as per the manufacturer’s instructions and subsequently adjusted to 1 mg mL^–1 using lysis buffer. Samples were prepared by adding 4 μL of 4× loading buffer (Biorad, 161-0747) containing β-mercaptoethanol to 12 μL of protein sample and boiling at 95 °C for 10 min. 14 μL of each sample was loaded onto a 4–15% Mini-PROTEAN TGX precast gel (Biorad, 456-1086) and run in 1× running buffer (0.25 M Tris, 0.2 M glycine, 0.1% (w/v) SDS) for 1.15 h at 130 V. Either 2 μL of precision plus protein all blue prestained protein standards (Bio-Rad, 1610373) or precision plus protein dual color standards (Bio-Rad, 1610374) was used in at least one well.
Proteins were transferred onto a nitrocellulose membrane (GE Healthcare) using the Trans-Blot Turbo Transfer System (Biorad, 1704150) at 2.5 A and 25 V for 7 min. The membrane was stained with Ponceau S to confirm protein transfer prior to blocking with 5% (w/v) nonfat dried skimmed milk in TBS-T (1× Tris-buffered saline, 0.1% (v/v) Tween-20) at rt for 1 h. Staining with the desired primary antibody in 5% (w/v) nonfat dried skimmed milk in TBS-T was performed overnight at 4 °C. The blot was washed with TBS-T at rt (3 × 5 min) and stained with secondary antibody in 5% (w/v) nonfat dried skimmed milk in TBS-T for 1 h at rt. The blot was washed with TBS-T at rt (3 × 5 min), visualized with Immobilon Crescendo Western HRP substrate, and imaged using ImageQuant LAS-4000 Imaging System (Fujifilm), and the contrast normalized in Fiji.

[2] = system: I2.1 FADD–/– human Jurkat cells; test: IncuCyte necroptosis assay in I2.1 cells; conditions: Homo sapiens, Jurkat, read-out: EC50 (95% CI), necroptosis inhibition
Protocol: A cell-based assay was established to monitor necroptosis in I2.1 cells using the IncuCyte S3 live cell microscopy platform (Figure S1a). Necroptosis was induced by treatment with TNF, and Sytox Green was used to monitor membrane permeabilization over time as an indicator of progressive necroptotic cell death (Figure S1b–d), allowing determination of the EC50 of candidate necroptosis inhibitors.
I2.1 cells were seeded in a sterile 96-well plate (Greiner) at 20,000 cells per well and incubated at 37 °C overnight. The cells were treated with a final concentration of 600 pM TNF, 1 μM Sytox Green, and compounds in a dose-dependent manner. Wells containing TNF and Sytox Green served as positive control. Wells containing DMSO and Sytox Green served as a negative control. The plate was placed into an IncuCyte S3 Live Cell Analysis System (Sartorius) and readings for phase and green fluorescence were taken every hour for 24 h, with 4 images per well. The images were analyzed with IncuCyte 2021C software and the Green Integrated Intensity Per Image/Phase Area Per Image (GCU × μm^2/image/μm^2/image or GP) was exported. The background at t = 0 h was subtracted, and the linear slope (t = 3–7 h) was calculated by plotting GP against time. The percent inhibition of necroptosis was determined by normalizing to the positive and negative controls and graphing against the [compound]. EC50 values were determined using Prism 10 for each replicate, which were then used to calculate the geometric mean EC50 and associated 95% CIs.
I2.1 cells in a 96-well plate were treated with TNF to induce necroptosis, a dilution series of the candidate necroptosis inhibitor and Sytox Green to monitor cell death. Plates were placed in the IncuCyte® and imaged every hour for 24 h. Cell death was measured over time and used to determine the proportion of necroptotic cells compared to those without necroptosis induction or not treated with an inhibitor. The linear portion of the graph was used to determine an initial rate for calculation of the EC50. TNF with Sytox Green and Sytox Green alone were used as positive and negative controls, respectively. […] EC50 values are expressed as the geometric mean with a 95% confidence interval (CI) of at least three biological replicates.

## CN1C(=O)C(Cc2c[nH]c3ccccc23)NC1=S (centres unmarked) [Nec-1, Necrostatin 1]
[1]
  phosphorylation of RIPK1 Ser166 after TNF: blocked
[2]
  EC50: 750 nM
